# Source: article PMC11819963, “In Vitro CO-Releasing and Antioxidant Properties of Sulfonamide-Based CAI-CORMs in a H2O2-Stimulated Human Achilles Tendon-Derived Cell Model” (Molecules, 2025)
# Read-outs that look alike come from different tables or passages of the source.
# Key:
# [1] = molecular target: T1, hCA II (Homo sapiens, UniProt P00918); experiment: stopped-flow CO2 hydrase assay, hCA II; assay type: biochemical; details: mean from three assays, errors ±5–10%
# Protocol: (§1) The CO2 concentrations ranged from 1.7 to 17 mM for the determination of the kinetic parameters and inhibition constants. […] The uncatalysed rates were determined in the same manner and subtracted from the total observed rates. […] The inhibition constants were obtained by non-linear least-squares methods using PRISM 3 and the Cheng–Prusoff equation and represent the mean from at least three different determinations.
# [2] = test system: reduced myoglobin (deoxy-Mb); experiment: myoglobin carbonylation assay (CO release); parameters: species or system horse
# Protocol: To determine the CO-releasing properties of the designed compounds, the myoglobin carbonylation assay was employed, with some deviations from the standard protocol, as previously reported. The analysed compounds were incubated with reduced myoglobin (deoxy-Mb), and spectra were recorded every 30 min up to 300 min. The release of CO was assessed by evaluating the formation of carbonylated myoglobin (Mb-CO) over time (Figure 3). […] The releasing properties of the compounds were also expressed as CO units released after 300 min of incubation with Mb, as reported in Figure S1 (Supplementary Information File).
# All the employed reagents were of analytical grade and acquired from Merck (Milan, Italy). Gaseous CO was obtained from Rivoira (Milan, Italy). A Shimadzu UV1900 UV-Vis Spectrophotometer from 275 to 700 nm at the scanning rate of 200 nm/min was used to record UV-Vis absorption spectra in a disposable plastic cuvette (path length 0.44 cm). The second derivative spectra were generated with the Origin Lab software, and the Savitzky–Golay method was applied using 25 data points for the differentiation process. Neither an increase nor a decrease in the number of points caused changes in the wavelength or in the bandwidth. Lyophilised horse heart Mb was dissolved in phosphate-buffered saline flushed with N2 (PBS, 0.01 M, pH 7.4 to a 20–22 μM final concentration). Two millilitres of this freshly prepared stock solution were placed in a cuvette to record the UV-Vis absorption spectrum of met-Mb. Next, the solutions were divided into two halves: 10 μL of sodium dithionite (30 mg/mL) was added to the first half (reference), and the UV–Vis spectrum of deoxy-Mb was registered. After that, the solution was flushed with CO gas, and the Mb-CO spectrum was acquired. Sodium dithionite was added to the second half (sample), and a spectrum was recorded. Afterwards, a CORM DMSO solution was added to a final CORM concentration of 1.67 μM, 3.33 μM or 20 μM and gently mixed. The solution was covered with 300 μL of light mineral oil to avoid CO escaping and oxygenation of Mb, and the absorption spectrum was recorded at t = 0. Spectra were acquired every 30 min for 300 min, keeping the sample at 37 °C. When necessary, a freshly prepared sodium dithionite solution was added. After 300 min, the total Mb concentration at the end of the assay was determined by flushing the sample with CO gas. Mb-CO concentration at each time point was determined, as previously reported. Each experiment was replicated three times, and the data were expressed as mean ± SEM.
# [3] = molecular target: hCA I (Homo sapiens, UniProt P00915); details: cited from earlier work
# [4] = molecular target: T2, hCA XII (Homo sapiens, UniProt O43570); experiment: stopped-flow CO2 hydrase assay, hCA XII; assay type: biochemical; details: mean from three assays, errors ±5–10%
# Protocol: as §1
# [5] = test system: Human Achilles tendon-derived tenocytes; experiment: cell metabolic activity (MTT test), basal conditions; assay type: cell-based
# Protocol: Human Achilles tendon-derived tenocytes (#TEN-F) were purchased by ZenBio Inc. (Durham, NC, USA) and maintained in complete alpha-MEM (EuroClone, Milan, Italy) supplemented with 10% of heat-inactivated FBS (Gibco, Thermo Fisher Scientific, Waltham, MA, USA) and 1% penicillin/streptomycin (EuroClone, Milan, Italy) at 37 °C and 5% CO2 and used from passage 3 up to passage 6.
# Cells were seeded in 96-well plates (0.5 × 10^4/well) or 6-well plates (0.5 × 10^5/well) (ThermoFisher Scientific, Waltham, MA, USA) and left to adhere overnight at 37 °C and 5% CO2. For cell metabolic activity experiments (MTT test), tenocytes were treated with increasing concentrations of compounds (range 0–50 µM) for 24 and 48 h. Compounds were dissolved in DMSO to obtain a 200 mM stock solution, and they were afterwards diluted in complete alpha-MEM (DMSO final concentration = 0.1%) for further analyses. In a second set of MTT experiments, tenocytes were pre-incubated with 100 µM H2O2 for 3 h. After that, the pre-incubation medium was discarded and replaced with a fresh one containing the proper compound at increasing concentrations for 24 and 48 h. At the established time points, samples were processed for further analyses.
# Tenocytes were seeded in 96 well tissue culture-treated plates (Falcon®, Corning Incorporated, Brooklyn, NY, USA) at 0.5 × 10^4 cells/well. Untreated cells (0 µM) were set as control (100% of cell metabolic activity). At the established time points, the exposure media were replaced by fresh medium containing 3-(4,5-dimethylthiazol-2-yl)-2,5-diphenyltetrazolium bromide (MTT) 0.5 mg/mL (Merck, Darmstadt, Germany) and processed as elsewhere reported [18]. The optical density in each well was measured using a spectrophotometer (Thermo Fisher Scientific, Waltham, MA, USA) at a wavelength of 540 nm. Each experiment was performed three times in triplicates per experimental condition (n = 9).
# [6] = molecular target: T3, hCA IX (Homo sapiens, UniProt Q16790); experiment: stopped-flow CO2 hydrase assay, hCA IX; assay type: biochemical; details: mean from three assays, errors ±5–10%
# Protocol: as §1
# [7] = molecular target: T2, hCA XII; parameters: method as in earlier work; details: alkyne precursors marked a in Table S1; cited from earlier work
# [8] = molecular target: T1, hCA II; parameters: method as in earlier work; details: alkyne precursors marked a in Table S1; cited from earlier work
# [9] = molecular target: T3, hCA IX; parameters: method as in earlier work; details: alkyne precursors marked a in Table S1; cited from earlier work
# Sequence of hCA I (P00915 whole entry): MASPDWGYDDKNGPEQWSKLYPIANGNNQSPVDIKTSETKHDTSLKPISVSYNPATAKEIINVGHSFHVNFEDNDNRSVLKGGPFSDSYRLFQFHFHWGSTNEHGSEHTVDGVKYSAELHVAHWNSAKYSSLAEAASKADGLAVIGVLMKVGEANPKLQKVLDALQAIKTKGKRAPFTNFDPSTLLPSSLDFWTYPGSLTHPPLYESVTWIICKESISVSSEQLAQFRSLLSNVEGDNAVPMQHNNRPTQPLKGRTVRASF
# T2 sequence (O43570 25-354): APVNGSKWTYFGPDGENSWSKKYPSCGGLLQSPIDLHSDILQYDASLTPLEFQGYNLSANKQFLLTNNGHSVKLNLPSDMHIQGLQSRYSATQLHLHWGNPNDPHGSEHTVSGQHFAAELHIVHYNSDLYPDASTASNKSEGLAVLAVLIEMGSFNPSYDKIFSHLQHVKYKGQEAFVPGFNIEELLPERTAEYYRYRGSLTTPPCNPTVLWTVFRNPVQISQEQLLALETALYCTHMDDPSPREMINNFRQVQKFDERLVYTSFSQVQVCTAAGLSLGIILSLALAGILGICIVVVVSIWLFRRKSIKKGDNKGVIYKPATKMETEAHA
SMILES,Ki [1],"CO-release profile (MbCO formed over time) ([2]; 1:1 and 1:6 CORM:Mb, up to 300 min, comparison within series)","MbCO formed ([2]; after 210 min of incubation, 1:1 CORM–Mb ratio (about 20 μM CORM))","Ki ([3]; stopped-flow CO2 hydrase assay, cells marked a)",Ki [4],"cell metabolic activity (MTT) ([5]; 24 h exposure, 6.25–50 µM, vs untreated control)",concentration at which cytotoxicity is seen (MTT) ([5]; 48 h exposure),Ki [6],Ki [7],Ki [8],Ki [9],Ki ([3]; alkyne precursors marked a in Table S1)
"C#CCOc1ccc(S(N)(=O)=O)cc1.[C-]#[O+].[C-]#[O+].[C-]#[O+].[C-]#[O+].[C-]#[O+].[C-]#[O+].[Co].[Co] [1b, 4-(Prop-2′-ynyloxy)benzenesulfonamide hexacarbonyldicobalt]",40.9 nM,the most efficient,6.39 µM,1340 nM,0.9 nM,significantly increase cell metabolic activity,≥ 25 µM,5.4 nM,–,–,–,–
"C#CCN(CC#C)c1ccc(S(N)(=O)=O)cc1 [C, 4-(diprop-2′-ynylamino)benzenesulfonamide]",–,–,–,–,–,–,–,–,4.9 nM,1780 nM,9 nM,6400 nM
